Laboratory results reported in paper PMC5287478, “Quantitative Affinity Determination by Fluorescence Anisotropy Measurements of Individual Nanoliter Droplets” (Analytical Chemistry, 2017).
pKd: −log10 of the molar value.

What was measured:
[1] = Retention of BRC4fl in droplets (leakage into oil phase); format: physicochemical; settings: HFE 7500 with 1% w/v AZ2C fluorosurfactant, approx. 1 minute to detection point
Method: AZ2C fluoroLsurfactant (made inLhouse according to a previously published method).4 The time to reach the detection point (approx. 1 minute) was sufficient for significant leakage of BRC4fl from the droplet. Addition of additives such as BSA has been found effective in increasing the effective solubility of reagents.5 BSA was titrated using the same droplet titration technique up to 1.2%. The fluorescence intensity measured at the detection point was […]
increase retention of the fluorophore in the droplet. Anisotropy reached a steadyLstate value when BSA was present at concentrations above 0.2%. Although the linear increase of […]
presence of BSA concentrations above 1% made droplet formation more difficult, because of the increased viscosity of the aqueous phase and the formation of BSA vesicles. Therefore 1% BSA was chosen as a compromise between these effects and all experiments were […]
Figure S4. Influence of BSA concentration on the retention of BRC4fl within the droplet. (A) Intensity is linearly increasing with BSA concentration. (B) Fluorescence anisotropy converges towards a steadyLstate value above a threshold concentration of BSA

[2] = biological target: T1, HumRadA18 (Pyrococcus furiosus, UniProt O74036, D220A/D267M/E219S/H199N/H264F/I169M/I200V/I222M/K198D/K221M/K223V/K263R/L213Q/L225S/L274E/Q216Y/V168A/V202Y/V215L/V232Y/W170Y/Y201A/Y275F); experiment: Competition assay with BRC4^fl in nanoliter droplets; format: binding
T1 construct: made in house; host or cells: E. coli BL21(DE3) pUBS520, pBAT plasmid

[3] = system: RAD51; settings: 30–35 amino acid peptide corresponding to BRC repeat 4; cited from earlier work
From the text: We explore the potential of single droplet anisotropy measurements for the study of structure–activity relationships for protein–protein interactions in nanoliter volumes. Specifically, we address the interactions of the BRC4 peptide, a reductionist model of the recombination mediator BRCA2, with mutants of an archaeal surrogate of the recombinase RAD51.[10] […] Inhibit ...

CC[C@H](C)[C@H](NC(=O)[C@H](CCCCN)NC(=O)[C@@H](NC(=O)[C@H](CCCCN)NC(=O)[C@H](CCCCN)NC(=O)CNC(=O)[C@H](CO)NC(=O)[C@H](C)NC(=O)[C@@H](NC(=O)[C@H](Cc1c[nH]cn1)NC(=O)[C@H](Cc1ccccc1)NC(=O)CNC(=O)[C@H](CC(C)C)NC(=O)[C@H](CC(C)C)NC(=O)[C@@H](NC(=O)[C@@H]1CCCN1C(=O)[C@H](CCC(=O)O)NC(=O)[C@H](CCCCN)NC(=O)[C@H](CSC1CC(=O)N(c2ccc3c(c2)C(=O)OC32c3ccc(O)cc3Oc3cc(O)ccc32)C1=O)NC(C)=O)[C@@H](C)O)[C@@H](C)O)C(C)C)C(=O)N[C@@H](C)C(=O)N[C@@H](CCCCN)C(=O)N[C@@H](CCC(=O)O)C(=O)N[C@@H](CO)C(=O)N[C@@H](CC(C)C)C(=O)N[C@@H](CC(=O)O)C(=O)N[C@@H](CCCCN)C(=O)N[C@H](C(=O)N[C@@H](CCCCN)C(=O)N[C@@H](CC(N)=O)C(=O)N[C@@H](CC(C)C)C(=O)N[C@@H](Cc1ccccc1)C(=O)N[C@@H](CC(=O)O)C(=O)N[C@@H](CCC(=O)O)C(=O)N[C@@H](CCCCN)C(=O)N[C@@H](CCC(=O)O)C(=O)N[C@@H](CCC(N)=O)C(N)=O)C(C)C (stereo partly drawn) [BRC4]
leakage from droplet [1]: high propensity for leakage | pKd [2]: 7.35 | RAD51 activity [3]: block RAD51 activity
